Data taken from patent publication US4857324A, “Exogenously acidified antacid compositions having cytoprotective properties” (priority 1987, dated 1989).

Tests used:
gastric acid secretion = conditions: in vivo; cited from earlier work
gastric mucosa = conditions: literature; cited from earlier work
ethanol induced ulcer = conditions: Robert et al 1984; cited from earlier work
[1] = tested on: ethanol induced gastric ulcers in the rat; test: ethanol-induced lesion assay (cytoprotective activity) in rats; assay type: in vivo, rat (male Sprague-Dawley); conditions: for % INHIBITION: Table 4
Text: The cytoprotective activity of a compound may be observed in both animals and man by noting the increase resistance of the gastrointestinal mucosa to the noxious effects of strong irritants, for example, the ulcerogenic effects of aspirin or indomethacin.
The ethanol-induced lesion assay is a standard test for cytoprotective activity and is described in an article by A. Robert et al entitled "Cytoprotection By Prostaglandins in Rats" published in Gastroenterology 77:433-443, 1979.
The ethanol-induced lesion assay was used to measure the cytoprotective ability of commercial antacids. Male Sprague-Dawley rats (supplier, Charles River, Willmington, Mass.) weighing between 120-150 g were used. The rats were fasted for 24 hr prior to use (water ad libitum). Before dosing, the animals were placed two per cage and denied water.
Animals were orally, i.e. intragastrically pretreated, one hour before ethanol administration with either RIOPAN Extra Strength suspension, MAALOX suspension, PGE2, or vehicle. One hour after ethanol administration, the rats were sacrificed by CO2 asphyxiation. The stomachs were removed and kept moist with saline until the lesions were scored. Ulcers were scored with the investigator unaware of the treatment groups (single blind). Ulcers were graded according to the following scale: […]
GRADE (Approximate length of lesion)
Absolute ethanol was given orally, 1 ml/rat. RIOPAN Extra Strength, 1080 mg magaldrate per 5 ml (lot 3RM4), and MAALOX, 200 mg Mg(OH)2 +225 mg Al(OH)3 per 5 ml (lot 64700), were administered orally as commercially available suspensions. The dose volume administered was based on the ED50 (ml of antacid/kg, see Table 1).
The dose volume of acidified antacid was adjusted for the volume of 6 N HCl added to the suspension. PGE2 was stored in 100% ethanol and diluted with normal saline before use.
Magaldrate of Example 1 and MAALOX of Example 2 were prepared as described above. The dose volume of nonbuffering antacid was adjusted for the volume of 6 N HCl added to the suspension during preparation. PGE2 was stored in 100% ethanol and diluted with normal saline before use.
The mean ulcer score of each treatment group was compared to the control group and expressed as the percent inhibition of ulcer formation.
The cytoprotective ED50 before and after acidification for the magaldrate of Example 1, referred to in this example as RIOPAN Extra Strength, and for MAALOX of Example 2 was calculated by standard regression analysis of the dose-response data. Confidence limits of 95% were calculated using the statistical differential method.
The spray dried powders of Examples 8 through 15 were tested for cytoprotective activity in the ethanol-induced lesion assay as described in Example 7.
The respective powders were admixed with sufficient water to form a liquid and the animals were dosed 400 milligrams of powder per kilo of body weight […]. in the test.
The experiments were performed using ten rats for each test composition and using the in vivo test procedure described in Example 7. The dose of acidified Extra Strength RIOPAN was selected for the test at 0.46 milliliters per kilogram of rat body weight. Approximately 4.6 times this amount (8 times on a mg/kg basis) was selected for the dose of commercial Extra Strength RIOPAN. Approximately 30 times this amount was selected for each dose of the Wenger et al solutions.
Two experiments were performed using ten rats for each test composition and again using the in vivo test procedure described in Example 7. In these experiments the dose in milliliters per kilogram of rat body weight was equal for each test composition.

[2] = per 5 ml of suspension or liquid; cited from earlier work

In the case of CCCCC[C@H](O)/C=C/[C@@H]1[C@@H](C/C=C\CCCC(=O)O)[C@@H](O)C[C@H]1O [prostaglandin F2], the “inhibition of gastric acid secretion” value (gastric acid secretion) is listed as “does not inhibit gastric acid secretion” and the “gastric cytoprotection (in words)” value (gastric mucosa) is listed as “does induce gastric cytoprotection”.

For CN/C(=N/CCSCc1nc[nH]c1C)NC#N [cimetidine], the “protection in the ethanol induced ulcer model” value (ethanol induced ulcer) is given as “do not protect in this model”.

For CCCCC[C@H](O)/C=C/[C@H]1[C@H](O)CC(=O)[C@@H]1C/C=C\CCCC(=O)O [PGE2], the “% INHIBITION” value ([1]; dose 25 g/kg p.o. (so in the source)) was 39%, the “% INHIBITION” value ([1]; dose 50 g/kg p.o. (so in the source)) was 63% and the “% INHIBITION” value ([1]; dose 75 g/kg p.o. (so in the source)) was 80%. The “effect on ethanol induced ulcers (in words)” value ([1]; rat, p.o.) was “inhibited ethanol induced ulcer formation” and the “potency of PGE2 relative to acidified RIOPAN Extra Strength or acidified MAALOX” value ([1]; rat, p.o.) was “approximately 1000 times”.

In the case of CC(C)[N+](C)(CCOC(=O)C1c2ccccc2Oc2ccccc21)C(C)C [propantheline bromide], the “protection in the ethanol induced ulcer model” value (ethanol induced ulcer) is listed as “do not protect in this model”.

For O.O=S(=O)([O-])[O-].O=S(=O)([O-])[O-].[Al+3].[Al+3].[Al+3].[Al+3].[Al+3].[Mg+2].[Mg+2].[Mg+2].[Mg+2].[Mg+2].[Mg+2].[Mg+2].[Mg+2].[Mg+2].[Mg+2].[OH-].[OH-].[OH-].[OH-].[OH-].[OH-].[OH-].[OH-].[OH-].[OH-].[OH-].[OH-].[OH-].[OH-].[OH-].[OH-].[OH-].[OH-].[OH-].[OH-].[OH-].[OH-].[OH-].[OH-].[OH-].[OH-].[OH-].[OH-].[OH-].[OH-].[OH-] [magaldrate, aluminum magnesium hydroxide sulfate], the “acid neutralized / acid neutralization capacity (ANC)” value [2] is given as 13.5 to 15 mEq and the “effect on ethanol induced ulcers (in words)” value ([1]; rat, p.o.) is given as “inhibit ethanol induced ulcers in rats”.

For [OH][Al]([OH])[OH] [Al(OH)3, aluminum hydroxide], the “gastric cytoprotection (in words)” value (gastric mucosa) is listed as “have cytoprotective properties”.

For [Cl][Al]([Cl])[Cl] [aluminum chloride], the “cytoprotective activity (in words)” value ([1]; ethanol-induced gastric lesion model) was “does not exhibit such activity”.
